Test results: ChEMBL document CHEMBL1201862, “PubChem BioAssay data set” (2004)
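48-hour exposure; five concentrations; linearly interpolated endpoints. GI50 marks 50% less growth.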 Active and inactive are the calls of the source. No stated cut-off is given here; in the data, active = GI50 up to about 1.1 µM and inactive = higher.

How the values were obtained:
Assay in all cases: NCI-60 cell line screen, 48 h
K562 = test system: K562
HCT-15 = test system: HCT-15
SK-MEL-28 = test system: SK-MEL-28
CAKI-1 = test system: CAKI-1
A498 = test system: A498
HOP-92 = test system: HOP-92
RXF 393 = test system: RXF 393
IGROV-1 = test system: IGROV-1
SNB-19 = test system: SNB-19
SF-268 = test system: SF-268
M14 = test system: M14
HCC 2998 = test system: HCC 2998
HT-29 = test system: HT-29
SW-620 = test system: SW-620
UACC-62 = test system: UACC-62
ACHN = test system: ACHN
CCRF-CEM = test system: CCRF-CEM
SK-MEL-2 = test system: SK-MEL-2
MOLT-4 = test system: MOLT-4
OVCAR-4 = test system: OVCAR-4

Compound | GI50 (K562) | GI50 (HCT-15) | GI50 (SK-MEL-28) | GI50 (CAKI-1) | GI50 (A498) | GI50 (HOP-92) | GI50 (RXF 393) | GI50 (IGROV-1) | GI50 (SNB-19) | GI50 (SF-268) | GI50 (M14) | GI50 (HCC 2998) | GI50 (HT-29) | GI50 (SW-620) | GI50 (UACC-62) | GI50 (ACHN) | GI50 (CCRF-CEM) | GI50 (SK-MEL-2) | GI50 (MOLT-4) | GI50 (OVCAR-4)
Clc1ccc(COc2ccccc2/C=N/c2c(-c3ccco3)nc3ccccn23)c(Cl)c1 | 28.4 µM (inactive) | 23.3 µM | 66.4 µM (inactive) | 32.5 µM (inactive) | > 100 µM (inactive) | 13 µM (inactive) | 20.9 µM (inactive) | 25.2 µM (inactive) | 44.1 µM (inactive) | 39.3 µM (inactive) | 26.1 µM (inactive) | 95.9 µM (inactive) | 31.9 µM (inactive) | 26.2 µM (inactive) | 33.3 µM (inactive) | > 100 µM (inactive) | 12.9 µM (inactive) | 20.2 µM (inactive) | 31.9 µM (inactive) | 24.9 µM (inactive)
CCOC(=O)/C=C(\C)c1ccc(C)cc1C | 45.1 µM (inactive) | 29.9 µM | 21.9 µM (inactive) | > 100 µM (inactive) | > 100 µM (inactive) | 29.8 µM (inactive) | 14.4 µM (inactive) | > 100 µM (inactive) | > 100 µM (inactive) | > 100 µM (inactive) | > 100 µM (inactive) | > 100 µM (inactive) | > 100 µM (inactive) | 17.8 µM (inactive) |  | > 100 µM (inactive) | 49.2 µM (inactive) | 45.2 µM (inactive) | > 100 µM (inactive) | > 100 µM (inactive)
Cc1c2cc[n+](C)cc2c(COC2OC(CO)C(O)C2O)c2c3ccccc3n(C)c12 (configuration not stated) | > 100 µM (inactive) | > 100 µM | 53 µM (inactive) | > 100 µM (inactive) | > 100 µM (inactive) | 77.6 µM (inactive) | > 100 µM (inactive) | > 100 µM (inactive) | 14.5 µM (inactive) | 15.8 µM (inactive) |  | > 100 µM (inactive) | > 100 µM (inactive) | > 100 µM (inactive) | > 96.8 µM (inactive) |  | > 87.9 µM (inactive) | > 100 µM (inactive) | 45.5 µM (inactive) | > 100 µM (inactive)
CCc1cc2c(oc3cc4ccccc4cc32)c(=O)[nH]1 |  | > 10 µM |  |  |  | > 10 µM (inactive) | > 10 µM (inactive) | > 10 µM (inactive) | > 10 µM (inactive) | > 10 µM (inactive) | > 10 µM (inactive) | > 10 µM (inactive) | > 10 µM (inactive) | > 10 µM (inactive) |  | > 10 µM (inactive) |  | > 10 µM (inactive) |  | > 10 µM (inactive)
O=C1CC2(CCC(O)(c3ccccc3)C(C(=O)c3ccccc3)C2)C(=O)c2ccccc2N1 (configuration not stated) | > 100 µM (inactive) | > 100 µM | > 100 µM (inactive) | > 100 µM (inactive) | > 100 µM (inactive) | 93.5 µM (inactive) | > 100 µM (inactive) | > 100 µM (inactive) | > 100 µM (inactive) | > 100 µM (inactive) | > 100 µM (inactive) | > 100 µM (inactive) | > 100 µM (inactive) | > 100 µM (inactive) | > 100 µM (inactive) |  | 46.8 µM (inactive) | > 100 µM (inactive) | > 100 µM (inactive) | 38.2 µM (inactive)
C/C(=N\NC(=O)c1ccncc1)c1cccc(C(F)(F)F)c1 | > 10 µM (inactive) | > 10 µM | > 10 µM (inactive) | > 10 µM (inactive) |  | > 10 µM (inactive) |  | > 10 µM (inactive) |  | > 10 µM (inactive) | > 10 µM (inactive) | > 10 µM (inactive) | > 10 µM (inactive) | > 10 µM (inactive) | > 10 µM (inactive) |  | > 10 µM (inactive) |  | > 10 µM (inactive) | > 10 µM (inactive)
c1ccc2c(c1)c1ccccc1n2Cn1c2ccccc2c2ccccc21 | > 100 µM (inactive) | > 100 µM | > 100 µM (inactive) | > 100 µM (inactive) | > 100 µM (inactive) | > 100 µM (inactive) | > 100 µM (inactive) | > 100 µM (inactive) | > 100 µM (inactive) | > 100 µM (inactive) | > 100 µM (inactive) |  | > 100 µM (inactive) | > 100 µM (inactive) | > 100 µM (inactive) | > 100 µM (inactive) | > 100 µM (inactive) | > 100 µM (inactive) | > 100 µM (inactive) | > 100 µM (inactive)
OCc1cc2ccncc2c2c1[nH]c1ccccc12 | 7.55 µM (inactive) | 5.64 µM | 9.35 µM (inactive) | 4.65 µM (inactive) | 4.5 µM (inactive) | 12.1 µM (inactive) | 2.96 µM (inactive) | 2.73 µM (inactive) | 6.49 µM (inactive) | 4.66 µM (inactive) | 13.2 µM (inactive) | 2.44 µM (inactive) | 4.58 µM (inactive) | 3.29 µM (inactive) |  | 3.83 µM (inactive) | 7.33 µM (inactive) | 12.1 µM (inactive) | 3.66 µM (inactive) | 6.95 µM (inactive)
Cc1oc2nc(N(C)C)n3cnnc3c2c1C | > 100 µM (inactive) | > 100 µM | > 100 µM (inactive) | > 100 µM (inactive) | > 100 µM (inactive) | > 100 µM (inactive) | > 100 µM (inactive) | > 100 µM (inactive) | > 100 µM (inactive) | > 100 µM (inactive) | > 100 µM (inactive) | > 100 µM (inactive) | > 100 µM (inactive) | > 100 µM (inactive) | > 100 µM (inactive) | > 100 µM (inactive) | > 100 µM (inactive) | > 100 µM (inactive) | > 100 µM (inactive) | > 100 µM (inactive)
N=C(N)c1csc([C@@H]2O[C@H](CO)[C@@H](O)[C@H]2O)n1 | > 100 µM (inactive) | > 100 µM | > 100 µM (inactive) | > 100 µM (inactive) |  |  | > 100 µM (inactive) | > 100 µM (inactive) | > 100 µM (inactive) | > 100 µM (inactive) | > 100 µM (inactive) | > 100 µM (inactive) |  | > 100 µM (inactive) |  | > 100 µM (inactive) | > 100 µM (inactive) | > 100 µM (inactive) | > 100 µM (inactive) | > 100 µM (inactive)
Cc1c(-c2cc3n(n2)C(c2cccs2)C(C#N)=C(c2ccccc2)N3)c(=O)n(-c2ccccc2)n1C (configuration not stated) | > 100 µM (inactive) | 84.1 µM | > 100 µM (inactive) | 11.1 µM (inactive) | 82.8 µM (inactive) | 36 µM (inactive) | 37.4 µM (inactive) | 87.7 µM (inactive) | > 100 µM (inactive) | > 100 µM (inactive) |  | > 100 µM (inactive) | 43.7 µM (inactive) | > 100 µM (inactive) | > 100 µM (inactive) |  | > 95.1 µM (inactive) | 51.6 µM (inactive) | > 72.6 µM (inactive) | > 87.9 µM (inactive)
COc1ccc(C2c3cc4c(cc3OC(Nc3ccccc3)C2C)OCO4)cc1 (configuration not stated) | 15.2 µM (inactive) | 33.6 µM | > 100 µM (inactive) | 25.4 µM (inactive) | 58.6 µM (inactive) | 23.8 µM (inactive) | 33.5 µM (inactive) | 99.8 µM (inactive) | > 100 µM (inactive) | 42.9 µM (inactive) | 85.9 µM (inactive) | 67.9 µM (inactive) | 31.7 µM (inactive) | 64.3 µM (inactive) | 52.8 µM (inactive) | 21.8 µM (inactive) | 14.1 µM (inactive) | > 100 µM (inactive) | 11.2 µM (inactive) | 
CNc1cc2c(c3ccccc13)C(CCl)CN2C(=O)c1cc2cc(OC)c(OC)c(OC)c2[nH]1 (configuration not stated) | 0.00188 µM (active) | 0.00137 µM | 0.0122 µM (active) | 0.000703 µM (active) | 0.00261 µM (active) | 0.00484 µM (active) | < 0.01 µM (active) | 0.00243 µM (active) | 0.0124 µM (active) | 0.0017 µM (active) | 0.00235 µM (active) | < 0.01 µM (active) | 0.0013 µM (active) | 0.00144 µM (active) | 0.000588 µM (active) | 0.000124 µM (active) | 0.00053 µM (active) | 0.00785 µM (active) | 0.00053 µM (active) | < 0.01 µM (active)
CSC1=N/C(=C\c2ccccc2)C(=O)N1CN1CCCCC1 | 26.7 µM (inactive) | > 10 µM | > 100 µM (inactive) |  | 77.8 µM (inactive) | 11.7 µM (inactive) |  | 38.7 µM (inactive) | 46.1 µM (inactive) | 55.5 µM (inactive) | 61.7 µM (inactive) |  | 22.5 µM (inactive) | 44.4 µM (inactive) | 58.3 µM (inactive) | 34.9 µM (inactive) | 52.5 µM (inactive) | > 100 µM (inactive) | 37.5 µM (inactive) | 16.4 µM (inactive)
O=c1[nH]c2ccc([N+](=O)[O-])cc2nc1/C(=N/Nc1ccccc1)C(O)c1ccco1 (configuration not stated) | 35.2 µM (inactive) | 18.2 µM | > 100 µM (inactive) |  |  | > 100 µM (inactive) | 52.8 µM (inactive) | 87.9 µM (inactive) | > 100 µM (inactive) | 71.6 µM (inactive) | > 100 µM (inactive) | 38.5 µM (inactive) | 66.8 µM (inactive) | 39.4 µM (inactive) | 32.2 µM (inactive) | 33.9 µM (inactive) | 16.6 µM (inactive) | > 100 µM (inactive) | 38.5 µM (inactive) | 66.2 µM (inactive)
CN(C)CCNC(=O)c1cccc2c1Nc1ccccc1S2 | 14.9 µM (inactive) | 16 µM | 14.4 µM (inactive) |  | 10.6 µM (inactive) | 2.08 µM (inactive) | 9.35 µM (inactive) | 11.3 µM (inactive) | 9.75 µM (inactive) | 15.8 µM (inactive) |  | 13.9 µM (inactive) | 11.7 µM (inactive) | 16.7 µM (inactive) | 14.6 µM (inactive) |  | 12.4 µM (inactive) | 16.3 µM (inactive) | 10.6 µM (inactive) | 13.4 µM (inactive)
